Assay results as given in US6794124B2, “Preservation solution” (Stiftelsen Facthor, priority 1995, dated 2004).

Legend:
blood vessels = assay: short-term and long-term preservation of blood vessels
[1] = test system: smooth muscular cells and endothelial cells from blood vessels; assay: morphology of blood vessel cells after long storage with or without calcium (FIG. 2)
Text: The vascular endothelium contains hydrocarbon chains which are bound to proteins in the cell membranes, and these constitute a so-called layer of glycocalyx. This is a thin layer of a mucous substance (composed of sugars) which is considered to enclose the cell membranes and which is important to the properties of immunity of the cell and makes the cell wall permeable. These hydrocarbon chains are bound together by, among other things, calcium. If the vascular endothelial cells are subjected to calcium-free solutions for a long time, a disintegration of the important layer of glycocalyx is assumed to take place, and the function of the endothelium thus cannot be perfect. Evidence of these discoveries has been obtained through electron microscope studies of cell membranes in blood vessels that have been stored in preservation solutions with and without calcium.
The pictures show, on the one hand, smooth muscular cells from blood vessels and, on the other hand, endothelial cells from blood vessels that have been stored for a long time with or without calcium. In the case of preservation without calcium (a: smooth muscular cell and c: endothelial cell), there appears an enormous swelling of the nuclei and the cytoplasm in both types of cells.

heparin [reference compound] was tested. Which “toxicity to the vascular endothelium / endothelial function” value (blood vessels) did it give?
The value was “not toxic to the endothelial function”.

With `[Ca+2]` [calcium] as the compound, how does the “time for which smooth muscle function in blood vessels is preserved” value (blood vessels; long-term preservation) read?
The value was “up to 36 hours”.

What about the “cell morphology after long storage” value [1] of the same compound?
The value was “normal structures of the cells”.
